We go through five molecules from patent US10414778B2, “Methods for treatment of resistant cancer” (New Mexico Tech University Research Park Corporation, priority 2016, dated 2019).

For one experiment, the system named is MES-SA cells. Briefly: MTT growth inhibition, MES-SA uterine sarcoma. Format: cell-based. The settings on record: Homo sapiens; parent MES-SA cells at start of selection of doxorubicin-resistant cells; read-out: GI50 concentration. On the procedure: (§1) Human cancer cell lines were obtained from the American Type Culture Collection (ATCC, Manassas, Va., USA), the European Collection of Cell Culture (ECACC, Salisbury, UK), and the Deutsche Sammlung von Mikroorganismen und Zellkulturen (DSMZ, Braunschweig, Germany). Human cervical adenocarcinoma HeLa cells were cultured in DMEM supplemented with 10% fetal bovine serum (FBS). Human mammary carcinoma MCF-7 cells were cultured in RPMI supplemented with 10% FBS. The U87 cells (ATCC HTB-14) were cultured in DMEM culture medium, while the A549 cells (DSMZ ACC107) were cultured in RPMI culture medium supplemented with 10% heat-inactivated FBS. The GBM Hs683 (ATCC HTB-138) and the T98G (ATCC CRL-1690) cell lines were cultivated in DMEM supplemented with 10% FBS. The GBM U251 cells (ECACC code 09063001) were cultured in 10% MEM. The human uterine sarcoma MES-SA and MES-SA/Dx5 cells were cultured in RPMI-1640 medium supplemented with 10% FBS with MES SA/Dx5 maintained in the presence of 500 nM Doxorubicin (Sigma™). The U373 glioblastoma cells (ECACC 08061901) were cultured in RPMI culture medium supplemented with 10% heat-inactivated FBS.
All compounds were dissolved in DMSO at a concentration of either 100 mM or 50 mM prior to cell treatment. The cells were trypsinized and seeded at various cell concentrations depending on the cell type. The cells were grown for 24 h to 72 h, treated with compounds at concentrations ranging from 0.001 to 100 μM, and incubated for 48, 72, or 96 h in 100 or 200 μL media depending on the cell line used. Cells treated with 0.1% DMSO were used as a negative control, and cells treated with 1 μM phenyl arsine oxide (PAO) were used as a positive control. […]
(§2) Drug-resistant cell lines (i.e., glioma: Hs683, U373, U251, U87, T98G; lung cancer: A549, H2073; uterine carcinoma: MES-SA/Dx5) were complemented with drug-sensitive cell lines, H1993 lung cancer and MES-SA uterine cancer, which were used as controls. […] The GI50 values were calculated after 48-96 hours of treatment with the indicated compounds in replicate using the MTT growth assay.

The subject of a further experiment is A549 cells. In words: MTT growth inhibition, A549 NSCLC. Format: cell-based, human. The settings on record: 48 hours, up to 100 μM, FIGS. 4-7. The method, then: as §1
(§3) All compounds were dissolved in DMSO at a concentration of either 100 mM or 50 mM prior to cell treatment. The cells were trypsinized and seeded at various cell concentrations depending on the cell type. The cells were grown for 24 h to 72 h, treated with compounds at concentrations ranging from 0.001 to 100 μM, and incubated for 48, 72, or 96 h in 100 or 200 μL media depending on the cell line used. Cells treated with 0.1% DMSO were used as a negative control, and cells treated with 1 μM phenyl arsine oxide (PAO) were used as a positive control.
as §2
Compounds 5l and 5g were further tested using the A549 lung cancer cell line to determine a dose-response effect on apoptosis-resistant cells. (FIGS. 4-7). […] The MTT assay was performed in four replicates after 48 hours of treatment with the indicated compounds relative to a DMSO control.

Another experiment concerns GBM 031810 cells. In words: MTT growth inhibition, primary GBM-derived neurosphere culture GBM 031810. Format: cell-based. The settings on record: Homo sapiens, Table 3, 48-96 h treatment, read-out: GI50 in vitro values, glioma GBM 031810. On the procedure:
(§4) Cell culture media were supplemented with 4 mM glutamine (Lonza code BE17-605E), 100 μg/mL gentamicin (Lonza code 17-5182), and penicillin-streptomycin (200 units/ml and 200 μg/ml) (Lonza code 17-602E). Primary GBM-derived neurosphere cultures from a patient undergoing surgical debulking were established using previously described methods. Briefly, resected tumor tissue was minced with a sterile scalpel and dissociated in 3 mL of neurobasal (NB) media containing 100 U/mL of collagenase (Life Technologies™) for 30 minutes at 37° C. Dissociated tissue was then vortexed and filtered using a sterile 70 um nylon Falcon™ cell strainer (Corning™). […]
(§5) Compound 4l was evaluated for in vitro growth inhibition against a panel of cancer cell lines, including U373, U251, U87, T98G, human GBM, and A549 NSCLC. […] Compound 4l was also evaluated for in vitro growth inhibition against the apoptosis-sensitive tumor model Hs683 anaplastic oligodendroglioma as a reference.

A further experiment relates to GBM 090909 cells. Briefly: MTT growth inhibition, primary GBM-derived neurosphere culture GBM 090909. As to conditions: Homo sapiens, Table 3, 48-96 h treatment, read-out: GI50 in vitro values, glioma GBM 090909. Format: cell-based. The method, then:
as §4, §5

For a further experiment, the system named is U87 cells. In words: MTT growth inhibition, U87 glioma. Format: cell-based, human. On the procedure: as §1, §3, §5
(§6) Due to their high potencies, compounds 5l and 5g were used to determine the effects of the compounds on drug-resistant tumor cells. Drug-resistant cell lines (i.e., glioma: Hs683, U373, U251, U87, T98G; lung cancer: A549, H2073; uterine carcinoma: MES-SA/Dx5) were complemented with drug-sensitive cell lines, H1993 lung cancer and MES-SA uterine cancer, which were used as controls. Bulbispermine and paclitaxel were also used as controls. The GI50 values were calculated after 48-96 hours of treatment with the indicated compounds in replicate using the MTT growth assay.

The subject of a further experiment is U373 glioblastoma cells. In words: MTT growth inhibition, U373 glioma. Format: cell-based, human. The method, then: as §1, §3, §5, §6
In the next experiment the test system is T98G cells. In words: MTT growth inhibition, T98G glioma. Format: cell-based, human. On the procedure:
as §1, §3, §5, §6

The subject of a further experiment is Hs683 cells. Briefly: MTT growth inhibition, Hs683 glioma. Format: cell-based, human. The method, then: as §1, §3, §5, §6
A further experiment has as its system U251 cells. Briefly: MTT growth inhibition, U251 glioma. Format: cell-based, human. On the procedure:
as §1, §3, §5, §6

Another experiment deals with H2073 cells. In words: MTT growth inhibition, H2073 drug-resistant NSCLC. Format: cell-based, human. The settings on record: Homo sapiens, NCI-H2073, MTT. The method, then:
NSCLC cell lines H1993 and H2073 were obtained from the Hamon Center for Therapeutic Oncology Research at UT Southwestern Medical Center and cultured in RPMI-1640 medium (Mediatech, VA, USA) supplemented with 5% heat-inactivated FBS (Mediatech™), 100 units/mL penicillin and 0.1 mg/mL streptomycin (Sigma™). All cell lines were cultured in T25 flasks, maintained, and grown at 37° C., 95% humidity, 5% CO2.
as §3
Spirodienone 4l was evaluated against patient-derived NSCLC cell line H1993 and its drug-resistant variant, H2073. The patient-derived NSCLC cell line […] was obtained from a regrown tumor at a primary site after a patient relapsed several months later.
as §6
Compound 5l was further tested to determine the effect of compounds of the invention on drug-resistant tumor cells. A patient-derived non-small cell lung cancer (NSCLC) line, H1993, and the drug-resistant variant of H1993, H2073, were used for testing. The H1993 cell line was obtained from a lymph node metastasis isolated from the patient prior to chemotherapy. The H2073 cell line was derived from a regrown tumor at the primary site after the patient had relapsed several months after administration of the chemotherapy regimen.

Another experiment concerns MES-SA/Dx5 cells. In words: MTT growth inhibition, MDR uterine sarcoma MES-SA/Dx5. The settings on record: Homo sapiens, MES-SA/Dx5, MTT. Format: cell-based, human. The method, then:
as §1, §3
Compound 4l was also evaluated against the MDR uterine sarcoma cell line (MES-SA/Dx5 to evaluate whether the compounds of the invention were substrates for the MDR cancer efflux systems. The MES-SA/Dx5 cell line was established from the parent uterine sarcoma MES-SA, grown in the presence of increasing concentrations of doxorubicin and is known to be resistant to a number of P-gp substrates.
The selection of doxorubicin-resistant cells (MES-SA/Dx5 cell line) was performed by splitting the cells and allowing the cells to adhere overnight. The next day, the cells were initially exposed to a DOX concentration of 100 nM, which represented the GI50 concentration. The cells were maintained at this DOX concentration until their growth rate reached that of the untreated cells. The DOX concentration was then increased in two-fold increments following the same growth criteria at each concentration to a final DOX concentration of 500 nM. Each new DOX concentration required approximately 2 passages to reach the growth rate of the untreated cells.
as §6

SMILES strings stand for the structures. Like-named read-outs stand apart in the source and are kept apart here.

Take `COc1cccc2c1C(=O)c1c(O)c3c(c(O)c1C2=O)C[C@@](O)(C(=O)CO)C[C@@H]3O[C@H]1C[C@H](N)[C@H](O)[C@H](C)O1` [DOX, doxorubicin, reference compound]: the GI50 with MES-SA cells was 0.1 µM.
Take `COc1cc([C@@H]2c3cc4c(cc3[C@H](O)[C@H]3COC(=O)[C@H]23)OCO4)cc(OC)c1OC` [PODO, podophyllotoxin, reference compound]: the “anti-proliferative activity, dose-response (absorbance at 595 nm)” value with A549 cells is on record as “did not display such potent anti-proliferative activity”.
As for `Cn1nnc2c(C(N)=O)ncn2c1=O` [TMZ, temozolomide, reference compound], the GI50 with GBM 031810 cells is > 1000 µM; in the experiment with GBM 090909 cells it was 50 µM.
With `O[C@H]1C=C[C@@]23c4cc5c(cc4CN(C[C@@H]2O)[C@H]3C1)OCO5` [bulbispermine, reference compound], the GI50 worked out at 38 µM in the experiment with U87 cells (Table 3, 48-96 h treatment, read-out: GI50 in vitro values, glioma U87); 38 µM with U87 cells (Table 5, 48-96 hours of treatment, read-out: GI50, Glioma U87); 53 µM in the experiment with U373 glioblastoma cells (Table 3, 48-96 h treatment, read-out: GI50 in vitro values, glioma U373); 53 µM in the experiment with U373 glioblastoma cells (Table 5, 48-96 hours of treatment, read-out: GI50, Glioma U373); 99 µM in the experiment on T98G cells (Table 3, 48-96 h treatment, read-out: GI50 in vitro values, glioma T98G); 99 µM with T98G cells (Table 5, 48-96 hours of treatment, read-out: GI50, Glioma T98G). The GI50 amounted to 27 µM with Hs683 cells (Table 3, 48-96 h treatment, read-out: GI50 in vitro values, glioma Hs683); 27 µM with Hs683 cells (Table 5, 48-96 hours of treatment, read-out: GI50, Glioma Hs683); 41 µM with U251 cells (Table 3, 48-96 h treatment, read-out: GI50 in vitro values, glioma U251); 41 µM in the experiment with U251 cells (Table 5, 48-96 hours of treatment, read-out: GI50, Glioma U251).
Consider `CC(=O)O[C@H]1C(=O)[C@@]2(C)[C@H]([C@H](OC(=O)c3ccccc3)[C@]3(O)C[C@H](OC(=O)[C@H](O)[C@@H](NC(=O)c4ccccc4)c4ccccc4)C(C)=C1C3(C)C)[C@]1(OC(C)=O)CO[C@@H]1C[C@@H]2O` [paclitaxel, reference compound], for which the GI50 came to 2.4 µM with H2073 cells (Table 3, 48-96 h treatment, read-out: GI50 in vitro values, lung cancer H2073); 2.4 µM in the experiment with H2073 cells (Table 5, 48-96 hours of treatment, read-out: GI50, Lung Cancer H2073); 10 µM with MES-SA/Dx5 cells (Table 3, 48-96 h treatment, read-out: GI50 in vitro values, uterine sarcoma MES-SA/Dx5); 10 µM in the experiment on MES-SA/Dx5 cells (Table 5, 48-96 hours of treatment, read-out: GI50, Sarcoma MES-SA/Dx5). The “anti-proliferative activity, dose-response (absorbance at 595 nm)” value with A549 cells is recorded as “did not display such potent anti-proliferative activity”.
